Test results published in the NIST ThermoML archive (doi:10.1016/j.jct.2016.12.032).

Legend:
[1] = xn = mol fraction of the nth substance listed; details: 100 kPa, Liquid, x1 = 1; for viscosity: Capillary tube (Ostwald / Ubbelohde) method; for mass density: Vibrating tube method
[2] = 100 kPa, Liquid; for viscosity: Capillary tube (Ostwald / Ubbelohde) method; for speed of sound: Frequency=3 MHz, Sing-around technique in a fixed-path interferometer; for mass density: Vibrating tube method
[3] = refractive index (Na D-line) (dimensionless); details: 100 kPa, Liquid, Standard Abbe refractometry

CCCC[n+]1ccn(C)c1.O=S(=O)([N-]S(=O)(=O)C(F)(F)F)C(F)(F)F + O=C1CCCCO1
[1]
Details | mass density [kg/m3] | viscosity [mPa·s]
293.15 K | 1441.61 | 62.08
298.15 K | 1436.67 | 50.05
303.15 K | 1431.58 | 41.24
308.15 K | 1426.62 | 33.65
313.15 K | 1421.58 | 28.28
318.15 K | 1416.58 | 23.91
323.15 K | 1411.54 | 20.64

O=C1CCCCO1 [1-oxacyclohexan-2-one]
[2]
Details | mass density [kg/m3] | speed of sound [m/s] | viscosity [mPa·s]
293.15 K | 1108.53 | 1587.2 | 3.68
298.15 K | 1103.96 | 1569.2 | 3.3
303.15 K | 1099.44 | 1551.3 | 2.98
308.15 K | 1094.83 | 1533.5 | 2.7
313.15 K | 1090.27 | 1516 | 2.47
318.15 K | 1085.71 | 1498.6 | 2.25
323.15 K | 1081.16 | 1481.5 | 2.09

CC1CC(=O)O1 (stereo not drawn) [4-methyl-2-oxetanone]
Details | mass density, [2] [kg/m3] | refractive index, [3] | speed of sound, [2] [m/s] | viscosity, [2] [mPa·s]
293.15 K | 1055.93 | 1.414 | 1371 | 1.68
298.15 K | 1050.68 | 1.412 | 1352.8 | 1.55
303.15 K | 1045.31 | 1.41 | 1334.7 | 1.48
308.15 K | 1039.85 | 1.407 | 1316.7 | 1.4
313.15 K | 1034.33 | 1.405 | 1298.8 | 1.33
318.15 K | 1028.79 | 1.403 | 1281.1 | 1.25
323.15 K | 1023.19 | 1.401 | 1263.6 | 1.18

CCCC[n+]1ccn(C)c1.O=S(=O)([N-]S(=O)(=O)C(F)(F)F)C(F)(F)F + CC1CC(=O)O1
[1]
Details | mass density [kg/m3] | viscosity [mPa·s]
293.15 K | 1441.61 | 62.08
298.15 K | 1436.67 | 50.05
303.15 K | 1431.58 | 41.24
308.15 K | 1426.62 | 33.65
313.15 K | 1421.58 | 28.28
318.15 K | 1416.58 | 23.91
323.15 K | 1411.54 | 20.64

CC1CCC(=O)O1 (stereo not drawn) [γ-valerolactone]
Details | mass density, [2] [kg/m3] | refractive index, [3] | speed of sound, [2] [m/s] | viscosity, [2] [mPa·s]
293.15 K | 1053.99 | 1.434 | 1447.3 | 1.99
298.15 K | 1049.28 | 1.432 | 1429.2 | 1.82
303.15 K | 1044.58 | 1.43 | 1411.3 | 1.67
308.15 K | 1039.87 | 1.427 | 1393.5 | 1.53
313.15 K | 1035.16 | 1.425 | 1375.9 | 1.42
318.15 K | 1030.45 | 1.423 | 1358.4 | 1.32
323.15 K | 1025.74 | 1.421 | 1341.2 | 1.23

CCCC[n+]1ccn(C)c1.O=S(=O)([N-]S(=O)(=O)C(F)(F)F)C(F)(F)F
[2]
Details | mass density [kg/m3]
293.15 K | 1441.61
298.15 K | 1436.67
303.15 K | 1431.58
308.15 K | 1426.62
313.15 K | 1421.58
318.15 K | 1416.58
323.15 K | 1411.54

O=C1CCCCCO1 [6-hexanolactone]
Details | mass density, [2] [kg/m3] | refractive index, [3] | speed of sound, [2] [m/s] | viscosity, [2] [mPa·s]
293.15 K | 1075.92 | 1.463 | 1567.8 | 6.63
298.15 K | 1071.67 | 1.461 | 1548.3 | 5.76
303.15 K | 1067.41 | 1.459 | 1529 | 5.04
308.15 K | 1063.15 | 1.457 | 1510 | 4.44
313.15 K | 1058.9 | 1.455 | 1491.2 | 3.95
318.15 K | 1054.65 | 1.454 | 1472.7 | 3.53
323.15 K | 1050.4 | 1.452 | 1454.5 | 3.17

CCCC[n+]1ccn(C)c1.O=S(=O)([N-]S(=O)(=O)C(F)(F)F)C(F)(F)F + CC1CCC(=O)O1
[1]
Details | mass density [kg/m3] | viscosity [mPa·s]
293.15 K | 1441.61 | 62.08
298.15 K | 1436.67 | 50.05
303.15 K | 1431.58 | 41.24
308.15 K | 1426.62 | 33.65
313.15 K | 1421.58 | 28.28
318.15 K | 1416.58 | 23.91
323.15 K | 1411.54 | 20.64

CCCC[n+]1ccn(C)c1.O=S(=O)([N-]S(=O)(=O)C(F)(F)F)C(F)(F)F + O=C1CCCCCO1
[1]
Details | mass density [kg/m3] | viscosity [mPa·s]
293.15 K | 1441.61 | 62.08
298.15 K | 1436.67 | 50.05
303.15 K | 1431.58 | 41.24
308.15 K | 1426.62 | 33.65
313.15 K | 1421.58 | 28.28
318.15 K | 1416.58 | 23.91
323.15 K | 1411.54 | 20.64
